ChEMBL document CHEMBL3400147, “New septanoside and 20-hydroxyecdysone septanoside derivative from Atriplex portulacoides roots with preliminary biological activities” (Bioorg Med Chem Lett, 2015)
Values after ≈ are worked out from the molar mass of the structure shown. Active and inactive are the calls of the source. No cut-off for these calls is given here.

Tests used:
[1] = Antioxidant activity assessed as catalase activity by measuring hydrogen peroxide disappearance per mg protein measured for 1 min at 25 degC; format: physicochemical
[2] = Antioxidant activity assessed as DPPH radical scavenging activity incubated for 30 mins by UV absorption spectrometry; format: physicochemical
[3] = Antioxidant activity assessed as ABTS radical scavenging activity incubated for 6 mins; format: physicochemical
[4] = Antioxidant activity assessed as ferric-reducing antioxidant power after 20 mins at 50 degC by UV spectrophotometry; format: physicochemical
Pseudomonas aeruginosa = test: Antimicrobial activity against Pseudomonas aeruginosa ATCC 27853 incubated for 24 hrs by microtiter plate dilution method; format: functional
Escherichia coli = test: Antimicrobial activity against Escherichia coli ATCC 25922 incubated for 24 hrs by microtiter plate dilution method; format: functional
Staphylococcus aureus = test: Antimicrobial activity against Staphylococcus aureus ATCC 25923 incubated for 24 hrs by microtiter plate dilution method; format: functional
Enterococcus faecalis = test: Antimicrobial activity against Enterococcus faecalis ATCC 29212 incubated for 24 hrs by microtiter plate dilution method; format: functional
Cholinesterase [5] = biological target: T1, Cholinesterase (Homo sapiens, UniProt P06276); test: Inhibition of BchE in human plasma at 1 mg/ml incubated for 30 mins using butyrylthiocholine substrate at 37 degC by DTNB dye based spectrophotometry
T1 sequence (P06276 whole entry): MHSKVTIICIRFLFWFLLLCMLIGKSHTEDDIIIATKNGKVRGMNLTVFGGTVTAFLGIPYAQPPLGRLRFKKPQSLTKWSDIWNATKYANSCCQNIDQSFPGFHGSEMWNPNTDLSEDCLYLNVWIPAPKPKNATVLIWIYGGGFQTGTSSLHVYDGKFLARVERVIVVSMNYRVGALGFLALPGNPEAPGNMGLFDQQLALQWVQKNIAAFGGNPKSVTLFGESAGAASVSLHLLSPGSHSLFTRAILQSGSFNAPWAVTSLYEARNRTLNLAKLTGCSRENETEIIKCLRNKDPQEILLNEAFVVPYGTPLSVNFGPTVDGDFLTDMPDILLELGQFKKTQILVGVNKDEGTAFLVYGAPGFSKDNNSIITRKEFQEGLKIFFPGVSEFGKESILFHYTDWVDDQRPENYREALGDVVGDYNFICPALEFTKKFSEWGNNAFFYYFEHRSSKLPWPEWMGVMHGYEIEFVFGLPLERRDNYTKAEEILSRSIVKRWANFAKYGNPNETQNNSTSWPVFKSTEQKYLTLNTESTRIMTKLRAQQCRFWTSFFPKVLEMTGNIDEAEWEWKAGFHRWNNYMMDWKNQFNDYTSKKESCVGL

Cholinesterase [6] = biological target: T1, Cholinesterase; test: Inhibition of BchE in human plasma incubated for 30 mins using butyrylthiocholine substrate at 37 degC by DTNB dye based spectrophotometry

Row | Compound | Activity [1] | IC50 [2] | IC50 [3] | IC50 [4] | MIC (Pseudomonas aeruginosa; ATCC 27853, 24 h) [µg/mL] | MIC (Escherichia coli; ATCC 25922, 24 h) [µg/mL] | MIC (Staphylococcus aureus; ATCC 25923, 24 h) [µg/mL] | MIC (Enterococcus faecalis; ATCC 29212, 24 h) [µg/mL] | inhibition (Cholinesterase [5]) [%] | IC50 (Cholinesterase [6]; read-out: IC50 (converted)) [µM] | MIC (Pseudomonas aeruginosa) | MIC (Escherichia coli) | MIC (Staphylococcus aureus) | MIC (Enterococcus faecalis) | IC50 (Cholinesterase [6])
1 | O=C1O[C@H]([C@@H](O)CO)C(O)=C1O [ASCORBIC ACID] | 757.575 µmol/min |  |  |  |  |  |  |  |  |  |  |  |  |  | 
2 | Cc1c(C)c2c(c(C)c1O)CCC(C)(C(=O)O)O2 (configuration not stated) [TROLOX] |  | 14.56 µg/mL (≈ 58.2 µM) | 2.02 µg/mL (≈ 8.07 µM) | 47.32 µg/mL (≈ 189 µM) |  |  |  |  |  |  |  |  |  |  | 
3 | CC(C)(O)CC[C@@H](O)[C@](C)(O)[C@H]1CC[C@@]2(O)C3=CC(=O)[C@@H]4C[C@@H](O)[C@@H](O)C[C@]4(C)[C@H]3CC[C@]12C [20-HYDROXYECDYSONE] | 112.35 µmol/min | 155.82 µg/mL (≈ 324 µM) | 98.74 µg/mL (≈ 205 µM) | 262.45 µg/mL (≈ 546 µM) | 62 (≈ 129 µM) | 125 (≈ 260 µM) | 125 (≈ 260 µM) | 125 (≈ 260 µM) | 71.2 | 1050 |  |  |  |  | 
4 | CN[C@H](CC(C)C)C(=O)N[C@H]1C(=O)N[C@@H](CC(N)=O)C(=O)N[C@H]2C(=O)N[C@H]3C(=O)N[C@H](C(=O)N[C@H](C(=O)O)c4cc(O)cc(O)c4-c4cc3ccc4O)[C@H](O)c3ccc(c(Cl)c3)Oc3cc2cc(c3O[C@@H]2O[C@H](CO)[C@@H](O)[C@H](O)[C@H]2O[C@H]2C[C@](C)(N)[C@H](O)[C@H](C)O2)Oc2ccc(cc2Cl)[C@H]1O [VANCOMYCIN] |  |  |  |  | 1 (≈ 0.69 µM) | 1 (≈ 0.69 µM) | 3 (≈ 2.07 µM) | 62 (≈ 42.8 µM) |  |  |  |  |  |  | 
5 | CO[C@]1(O[C@@H](CCC(C)(C)O)[C@](C)(O)[C@H]2CC[C@@]3(O)C4=CC(=O)[C@@H]5C[C@@H](O)[C@@H](O)C[C@]5(C)[C@H]4CC[C@]23C)COC[C@@H](O)[C@@H](O)[C@H]1O | 159.62 µmol/min | 180.26 µg/mL (≈ 274 µM) | 111.24 µg/mL (≈ 169 µM) | 288.36 µg/mL (≈ 439 µM) | 125 (≈ 190 µM) | 62 (≈ 94.4 µM) | 125 (≈ 190 µM) | 125 (≈ 190 µM) | 68.3 | 837 |  |  |  |  | 
6 | CCCCOC1(O)COC[C@@H](O)[C@@H](O)[C@H]1O (some centres not stated) | Not Active | Not Active | Not Active | Not Active |  |  |  |  |  |  | inactive | inactive | inactive | inactive | Not Active
